Where two headings read alike, the source gives them in different places.
Tests used:
[1] = test system: drug-resistant HIV strains; conditions: Table 2 strains
[2] = test system: HXB2; test: IC50 of APHS for HIV-1 strains (Table 2), sensitive strain; format: cell-based; conditions: Human immunodeficiency virus 1, HXB2, read-out: IC50 of APHS
[3] = test system: HIV-1Ba-L; test: HIV-1 production by chronically infected MDM, p24-core antigen ELISA; format: cell-based; conditions: Fig 6D; APHS added 5 days after infection, 2 days of incubation
Description: (§1) (A, B) Peripheral blood mononuclear cells (PBMC) were isolated from heparinized blood from HIV-1-, HIV-2-, and hepatitis B-seronegative donors and obtained on Ficoll-Hypaque density gradients. Cells were washed twice, stimulated with 5 µg/ml phytohemagglutinin (PHA), and cultured m RPMI-1640 medium supplemented with 5 mM Hepes, 19 mM sodium bicarbonate, 10 µg/mL gentamicin, and 10% heat-inactivated fetal calf serum (PBMC culture medium) at a concentration of 2 x 10^6 cells/ml. After 3 days of incubation stimulated PBMC were recovered from the flasks and infected for 2 hours with HIV-1Ba-L at a multiplicity of infection of 0.01. Afterwards, HIV-infected and mock-infected PBMC were washed twice to remove unbound virus. […] (B) PBMC were cultured in suspension at a concentration of 2 x 10^6 cells/ml in Teflon flasks in PBMC culture medium. […] After 2 days of incubation samples of culture supernatant were collected. p24-core antigen production was quantified using the enzyme-linked immunosorbent assay (ELISA) system of John Moore. […] (C, D) PBMC were isolated from heparinized blood from HIV-1-, HIV-2-, and hepatitis B-seronegative donors and obtained on Ficoll-Hypaque density gradients. […] After 2 days of incubation samples of culture supernatant were collected. p24-core antigen production was quantified using the enzyme-linked immunosorbent assay (ELISA) system of John Moore. […]

[4] = test system: HIV-1Ba-L; test: HIV-1 replication in acutely infected PBMC, p24-core antigen ELISA; format: cell-based; conditions: for inhibition at 30 µM: 30 µM APHS
Description: Peripheral blood mononuclear cell (PBMC) fractions are isolated from heparinised blood from HIV-1-, HIV-2- and hepatitis B- seronegative donors (Blood-bank, Utrecht, the Netherlands) by Ficoll-Isopaque gradient separation. Cells are washed twice, stimulated with 4 µg/ml phytohemagglutinin (PHA), and cultured in RPMI-1640 medium supplemented with 5 mM Hepes, 19 mM sodium bicarbonate, 10 µg/ml gentamicin, and 10% heat-inactivated fetal calf serum at a concentration of 1 x 10^6 cells/ml.
HIV-1 strain Ba-L is grown to high titer in MDM. The 50% tissue culture infectious dose (TCID50) of the virus stock is determined by endpoint dilution with serial fourfold dilutions in a 96-well microtiter plate on MDM. HIV-1 strain AT is grown to high titer in PHA-stimulated PBMC. The TCID50 of the virus stock is determined by endpoint dilution with serial fourfold dilutions in a 96-well microtiter plate on PBMC.
MDM, and PBMC, were incubated with HIV at a multiplicity of infection of 0.02, and 0.006 or 0.001, respectively. After two hours cells are washed to remove unbound virus and cultured for 4 to 7 days in different concentrations of the drug under investigation. On day 4, 5 and 7, 0.01 ml of supernatant is removed from the culture and virus in culture supernatant is inactivated in a final concentration of 0.05% empigen (Calbiochem-Novabiochem Co., La Jolla, CA). The presence of HIV-1 in the inactivated supernatant is monitored by checking for the p24-core antigen using the enzyme-linked immunosorbent assay (ELISA) system of John Moore.
(A, B) Peripheral blood mononuclear cells (PBMC) were isolated from heparinized blood from HIV-1-, HIV-2-, and hepatitis B-seronegative donors and obtained on Ficoll-Hypaque density gradients. Cells were washed twice, stimulated with 5 µg/ml phytohemagglutinin (PHA), and cultured m RPMI-1640 medium supplemented with 5 mM Hepes, 19 mM sodium bicarbonate, 10 µg/mL gentamicin, and 10% heat-inactivated fetal calf serum (PBMC culture medium) at a concentration of 2 x 10^6 cells/ml. After 3 days of incubation stimulated PBMC were recovered from the flasks and infected for 2 hours with HIV-1Ba-L at a multiplicity of infection of 0.01. Afterwards, HIV-infected and mock-infected PBMC were washed twice to remove unbound virus. (A) PBMC were cultured at a density of 6 x 10^5 cells/well with different concentrations of APHS and after 5 days of incubation samples of culture supernatant were collected. (B) PBMC were cultured in suspension at a concentration of 2 x 10^6 cells/ml in Teflon flasks in PBMC culture medium. After 5 days of incubation PBMC were recovered from Teflon flasks, washed twice to remove unbound virus and cultured at a density of 6 x 10^5 PBMC / well with different concentrations of APHS. After 2 days of incubation samples of culture supernatant were collected. p24-core antigen production was quantified using the enzyme-linked immunosorbent assay (ELISA) system of John Moore. […] (C, D) PBMC were isolated from heparinized blood from HIV-1-, HIV-2-, and hepatitis B-seronegative donors and obtained on Ficoll-Hypaque density gradients. PBMC were washed twice and monocytes were purified by countercurrent centrifugal elutriation. Cells were >98% monocytes by criteria of cell morphology on May-Grünwald-Giemsa-stained cytosmears and by nonspecific esterase staining using alpha-naphtylacetate as substrate. […]

[5] = test system: HIV-1Ba-L; test: HIV-1 production by chronically infected PBMC, p24-core antigen ELISA; format: cell-based; conditions: Fig 6B; APHS added 5 days after infection, 2 days of incubation
Description: as §1

`CCCCC#CCSc1ccccc1OC(C)=O` [APHS, o-(acetoxy-phenyl)hept-2-ynyl sulphide] was tested, and the “inhibitory activity against drug resistant strains versus activity against a sensitive strain” value [1] was “two- to four-fold higher”, the IC50 [2] was 12.6 ± 2.3 µM and the “inhibition of HIV-1 production by chronically infected MDM” value [3] was “does not inhibit”. The “APHS concentrations that inhibit HIV-1 production” value ([4]; Fig 4, PBMC infected with HIV-1AT or HIV-1BaL, 4 and 5 days of incubation) was “above 1 µM”, the “APHS concentrations that inhibit HIV-1Ba-L replication” value ([4]; Fig 6A, acute infection of PBMC, multiplicity of infection 0.01, 5 days of incubation) was “above 3 µM” and the inhibition at 30 µM ([4]; Human immunodeficiency virus 1, 120 h, Fig 6A, acute infection of PBMC, multiplicity of infection 0.01, 5 days) was 100%. The inhibition at 1 µM ([4]; Human immunodeficiency virus 1, PBMC, read-out: inhibition of HIV-1BaL production) was 50%, the inhibition at 30 µM ([4]; Human immunodeficiency virus 1, Fig 4, PBMC, read-out: inhibition of HIV-1BaL replication) was 100% and the “inhibition of HIV-1 production of chronically infected PBMCs” value [5] was “does not inhibit”.
